Data: patent US10209240B2, “Predicting human developmental toxicity of pharmaceuticals using human stem-like cells and metabolomic ratios” (STEMINA BIOMARKER DISCOVERY, INC., priority 2012, dated 2019)
Read-outs that look alike come from different tables or passages of the source.

How the values were obtained:
[1] = test system: hES cells; experiment: ADMA/cystine ratio simplified predictive model in hES cell spent media; format: cell-based, human; details: single dose per treatment; ratios less than 0.9 indicate teratogenicity
Description: (§1) This simplified model is based on a ratio of the reference treatment (DMSO) normalized values of ADMA and cystine.
The X-axis is the reference normalized ratio of ADMA/Cystine. The y-axis is the training set of pharmaceuticals. Grey color with triangle glyphs represents teratogens and black color with circle glyphs represents non-teratogens. Each glyph point represents the media value of an independent experimental block (6 reps per block). The crosshair glyphs mark the sample medians. In FIG. 9, grey vertical line is threshold of teratogenicity, grey horizontal lines are the median absolute deviations, and black vertical line designates 1.0. The arrows at the bottom indicate the values used for differentiation of teratogens and nonteratogens, utilizing a cut off of 0.9 (grey line).

[2] = test system: hES cells; experiment: devTOX computational model predictions (Version 2.0, Version 2.1) from hES cell metabolomics; format: cell-based, human; details: single dose per treatment (Dose column)
Description: The selection process weighted the predictive capacity of a feature, overall intensity, and peak shape to identify very well behaved features/metabolites that could be measured by targeted LC-MS or even by other detection systems.
as §1

[3] = test system: Humans; details: cited from earlier work; for Known Effect: validation and test set treatments of Example 2; for Humans (known human developmental toxicity): training and test set
[4] = test system: WA09 hES cells; experiment: Phase 2 targeted biomarker assay, ornithine/cystine ratio, 9-point dose response
Description: Undifferentiated hES Cell Line Maintenance (Phases 1 and 2). WA09 hES cells were obtained from the WiCell Research Institute (Madison, Wis.) and were maintained in feeder free conditions using mTeSR1 media (StemCell Technologies, Inc., Vancouver, BC, Canada) on hESC-qualified Matrigel (BD Biosciences, San Jose, Calif.) coated 6-well plates. To maintain the undifferentiated stem cell population, differentiated colonies were removed daily through aspiration and media was replaced. Additionally, the hES cells were only used in experiments up to passage 40 and were karyotyped approximately every 10 passages to minimize and monitor the potential for genetic instability. hES cells were passaged at 90-95% confluency (approximately every 7 days) using Versene (Life Technologies, Grand Island, N.Y.). Cell cultures were maintained at 37° C. under 5% CO2.
96-well hES Cell Plating (Phases 1 and 2). All experimental treatments were carried out in 96-well plates. To minimize plating variability and increase reproducibility, hES cells were plated as a single cell suspension and maintained in an undifferentiated state during compound exposure. Prior to plating in the 96-well plates, hES cells were removed from a 6-well plate using TrypLE (Life Technologies). The cells were washed with DMEM/F12 (Life Technologies) and resuspended in mTeSR1 containing 10 μM Y27632 Rho-associated kinase (ROCK) inhibitor (Merck KGaA/Calbiochem, Darmstadt, Germany). The ROCK inhibitor is added to the plating media to increase plating efficiency by decreasing dissociation-induced apoptosis. The inner 60 wells of hESC-qualified Matrigel coated 96-well plates were seeded at a density of 100,000 cells per well. The outer wells of the plate contained an equal volume media to minimize differences in humidity across the plate. Compound exposure began 24 hours after plating.
(§2) Phase 2 hES Cell Compound Exposure. […] The standard compound exposure levels used for most compounds were nine, 3-fold dilutions ranging from 0.04 μM-300 μM (FIG. 1B). […] The stock solution was diluted 1:1000 in mTeSR1 media and subsequent dilutions were performed in mTeSR1 containing 0.1% DMSO such that the final concentration of DMSO was 0.1% in all treatments. hES cells were treated for 72 hours and spent media from the last 24-hour treatment period was collected and added to acetonitrile containing ^13C6 labeled arginine (Cambridge Isotope Laboratories, Andover, Md.) as described under Phase 1. Spent media samples were stored at −80° C. until prepared for LC-HRMS analysis. Cell viability was assessed using the CellTiter-Fluor Cell Viability Assay. A quality control step was included with criteria that the CV of the measured viability RFU of the DMSO control cells could not exceed 10% for a plate to undergo LC-HRMS analysis. A dose response curve was fit to the reference treatment (0.1% DMSO treated control cells) normalized data (Viability RFUTrt X/Viability RFUDMSO) using a four-parameter log-logistic model with the R package “drc” (Ritz and Streibig, 2005, J Statistical Software; 12:1-22).
Sample Preparation (Phases 1 and 2). High molecular weight constituents (>10 KDa) of the spent media samples were removed using a Millipore Multiscreen Ultracel-10 filter plate (EMD Millipore, Billerica, Mass.). Prior to sample filtration, the filter plate was washed with 0.1% NaOH to remove a known contaminant polymer. The plate was then rinsed twice with HPLC-grade water to remove residual polymers and NaOH. Spent media samples were added to the washed filter plate. In Phase 1, samples were spiked with ^13C6 labeled arginine. Samples were centrifuged at 2,000×g at 4° C. for 200 minutes. The filtrate was collected and concentrated overnight in a Savant High Capacity Speedvac Plus Concentrator.

[5] = therapeutic peak plasma in vivo concentration, human, cited from earlier work
[6] = test system: WA09 hES cells
Experimental: Phase I hES Cell Compound Exposure. hES cells were treated with a test compound at a single concentration equivalent to the compound's published therapeutic Cmax. […] This was done to ensure that enough cells were present at the time of sample collection to provide a signal for LC-HRMS analysis. For test compound exposure, all compound stock solutions, with the exception of valproic acid, were made with DMSO (Sigma-Aldrich). […] Each 96-well plate included media controls with and without test compound, 0.1% DMSO solvent control cells and cells exposed to a single concentration of eight different test compounds (FIG. 1A). Media controls were included on each plate to assess the impact of test compound on the sample matrix. hES cells were exposed to the test compound for 72 hours, with media and test compound replacement every 24 hours. Cells were monitored throughout the treatment period to ensure that no differentiation was occurring. After 72 hours of treatment, the spent media from the final 24-hour treatment period was collected and added to acetonitrile (Sigma-Aldrich, final acetonitrile concentration 40%), to halt metabolic processes and precipitate proteins from solution. Individual wells from each 96-well plate were collected and analyzed as separate samples. These samples were then stored at −80° C. until prepared for LC-HRMS analysis. Cell viability was assessed using the CellTiter-Fluor Cell Viability Assay as per the manufacturer's instructions (Promega, Madison, Wis.). Quality control parameters were set such that if the coefficient of variation (CV) for the viability relative fluorescent units (RFU) of the 6 cellular samples in a treatment exceeded 10% and no outliers were identified using the Grubb's test (see the worldwide web at graphpad.com/quickcalcs/Grubbs1.cfm), analysis was halted for that compound and the cell culture experiment was repeated. If outliers were present, the outlier sample was removed from analysis. If the CV for the DMSO control cell samples on a plate were outside of the quality control parameters, the entire plate was repeated. hES cell exposure to each of the 23 compounds was replicated a total of nine times.
as §2
Phase 2 Prediction of Developmental Toxicity Potential. […] FIG. 2 illustrates how the assay is applied in this situation. A test compound is considered to be teratogenic at the exposure level where the o/c ratio exceeds the teratogenicity threshold (red box, FIG. 2).

[7] = summarized from TERIS and Briggs et al. 2011, cited from earlier work
[8] = test system: Rodent; details: training and test set; cited from earlier work
[9] = test system: Rabbit; details: training and test set; cited from earlier work
[10] = test set, teratogenicity potential scored against therapeutic Cmax
[11] = training and test set, o/c ratio scored against therapeutic Cmax

Row | SMILES | Model Predictions ADMA/Cystine [1] | Model Predictions Version 2.0 [2] | Model Predictions Version 2.1 [2] | Known Effect [3] | Targeted Biomarker Assay prediction [4] | Cmax ([5]; training set) [nM] | Viability Prediction [6] | Teratogenicity Potential (μM) Cell Viability ([6]; human, 72 h) [µM] | O/C Ratio Prediction [4] | Teratogenicity Potential (μM) O/C Ratio ([4]; human, 72 h) [µM] | Preclinical in vivo and known human developmental effects ([7]; test set compounds) | Rodent prediction [8] | Humans (known human developmental toxicity) [3] | Cmax ([5]; test set) [nM] | also measured
1 | C=CC=O [Acrolein] | Ter | Ter | Ter | Ter | – | – | – | – | – | – | – | – | – | – | –
2 | O=C1O[C@H]([C@@H](O)CO)C(O)=C1O [Ascorbic Acid] | Non | Non | Non | – | NON | 90000 | NON | >300 | – | – | – | – | – | – | –
3 | CC1(C)S[C@@H]2[C@H](NC(=O)[C@H](N)c3ccc(O)cc3)C(=O)N2[C@H]1C(=O)O [Amoxicillin] | Non | Non | Non | Non | NON | – | NON | >300 | NON | >300 | None | NON | NON | 20500 | –
4 | Nc1nc(N)c2nc(CNc3ccc(C(=O)N[C@@H](CCC(=O)O)C(=O)O)cc3)cnc2n1 [Aminopterin] | Ter | Ter | Ter | Ter | – | – | – | – | – | – | Craniofacial, limb, skeletal, | TER | TER | 300 | Teratogenicity Potential (μM) O/C Ratio ([4]; test set, interpolated concentration where o/c ratio dose response curve crosses teratogenicity threshold 0.88, 72 hours): 0.01 µM; O/C Ratio Prediction [4, 10]: TER; Targeted Biomarker Assay prediction [4, 11]: TER; Rabbit prediction [9]: TER; Teratogenicity Potential (μM) Cell Viability ([6]; test set, interpolated concentration where cell viability dose response curve crosses teratogenicity threshold 0.88, 72 hours): 0.01 µM; Viability Prediction [6, 10]: TER
5 | CC(=O)CC(c1ccccc1)c1c(O)c2ccccc2oc1=O (stereo not drawn) [Warfarin] | Ter | Ter | Ter | – | – | 23400 | – | – | – | – | – | – | TER | – | Targeted Biomarker Assay prediction [4, 11]: TER; Teratogenicity Potential (μM) Cell Viability ([6]; training set, interpolated concentration where cell viability dose response curve crosses teratogenicity threshold 0.88, 72 hours): >300 µM; Viability Prediction ([6]; training set, teratogenicity potential scored against therapeutic Cmax): NON
6 | CN(C)CCOC(c1ccccc1)c1ccccc1 [Diphenhydramine] | Non | Non | Non | – | NON | – | NON | 78.9 | – | – | – | – | – | – | –
7 | N[C@@H](CC(=O)N1CCn2c(nnc2C(F)(F)F)C1)Cc1cc(F)c(F)cc1F [Sitagliptin] | – | – | – | – | NON | – | NON | >300 | NON | 22.6 | Low doses: None; High | TER | NON | 950 | Rabbit prediction [9]: NON
8 | CN(C)CCOC(C)(c1ccccc1)c1ccccn1 (stereo not drawn) [Doxylamine] | Non | Non | Non | – | NON | 380 | NON | >300 | – | – | – | – | NON | – | –
9 | CO[C@H]1C[C@@H]2CC[C@@H](C)[C@@](O)(O2)C(=O)C(=O)N2CCCC[C@H]2C(=O)O[C@H]([C@H](C)C[C@@H]2CC[C@@H](OCCO)[C@H](OC)C2)CC(=O)[C@H](C)/C=C(\C)[C@@H](O)[C@@H](OC)C(=O)[C@H](C)C[C@H](C)/C=C/C=C/C=C/1C [Everolimus] | – | – | – | – | TER | – | NON | 5.2 | TER | <0.04 | Skeletal, embryo toxicity^c | TER | TER | 20 | Classification by o/c ratio in the targeted biomarker assay [4]: classified as a teratogen; Rabbit prediction [9]: NON
10 | NC(=O)NO [Hydroxyurea] | Ter | Ter | Ter | – | TER | 565000 | TER | 251.6 | – | – | – | – | TER | – | Cytotoxicity at the Cmax exposure level ([6]; human, 72 h): greater than 30%
11 | Cc1ncc(C[n+]2csc(CCO)c2C)c(N)n1 [Thiamine] | Non | Non | Non | Non | NON | 670 | NON | >300 | NON | >300 | – | – | NON | – | Preclinical in vivo and known human developmental effects ([7]; training set compounds): None
